Where two headings read alike, the source gives them in different places.
Biological target: T1, mu opiate receptor (MOR) (Rattus norvegicus, UniProt P33535)
T1 construct: from tissue; host or cells: striatum (membrane preparation)
Format: biochemical
Conditions: for [35S]GTPγS binding, FLNA-Binding Compound as Agonist at 0.1 μM: 0.1 μM compound; for [35S]GTPγS binding, FLNA-Binding Compound as Agonist at 0.1 μM / [35S]GTPγS binding, FLNA-Binding Compound as Agonist at 1 μM: striatal membranes; for [35S]GTPγS binding, FLNA-Binding Compound as Agonist at 0.1 μM / [35S]GTPγS binding, FLNA-Binding Compound as Agonist at 1 μM + BFNA / [35S]GTPγS binding, FLNA-Binding Compound as Agonist at 1 μM: Series C-2; for [35S]GTPγS binding, FLNA-Binding Compound as Agonist at 1 μM + BFNA: 1 μM compound + 1 μM β-FNA (selective MOR antagonist); for [35S]GTPγS binding, FLNA-Binding Compound as Agonist at 1 μM: 1 μM compound

[1] = [35S]GTPγS binding to Gαo in striatal membranes, compound 0.1 μM
[2] = [35S]GTPγS binding to Gαo in striatal membranes, compound 1 μM
[3] = [35S]GTPγS binding to Gαo in striatal membranes, compound 1 μM plus 1 μM β-funaltrexamine (MOR antagonist)

T1 sequence (P33535 whole entry): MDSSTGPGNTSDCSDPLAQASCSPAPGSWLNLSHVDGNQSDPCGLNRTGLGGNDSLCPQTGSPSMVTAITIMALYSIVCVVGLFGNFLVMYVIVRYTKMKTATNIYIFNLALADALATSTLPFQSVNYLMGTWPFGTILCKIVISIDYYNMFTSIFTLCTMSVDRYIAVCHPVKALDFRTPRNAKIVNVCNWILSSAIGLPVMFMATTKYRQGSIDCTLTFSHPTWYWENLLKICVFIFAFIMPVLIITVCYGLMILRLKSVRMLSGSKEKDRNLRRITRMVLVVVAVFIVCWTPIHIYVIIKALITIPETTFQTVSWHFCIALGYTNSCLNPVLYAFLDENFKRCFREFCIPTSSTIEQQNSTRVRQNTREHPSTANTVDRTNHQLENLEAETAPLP

| Structure (SMILES) | % DAMGO (0.1 μM) | % DAMGO (1 μM) | % DAMGO + BFNA | [35S]GTPγS binding, FLNA-Binding Compound as Agonist at 0.1 μM | [35S]GTPγS binding, FLNA-Binding Compound as Agonist at 1 μM + BFNA | [35S]GTPγS binding, FLNA-Binding Compound as Agonist at 1 μM | Concentration of FLNA-Binding Compound as Agonist 0.1 μM [1] | Concentration of FLNA-Binding Compound as Agonist 1 μM [2] | Concentration of FLNA-Binding Compound as Agonist 1 μM + BFNA [3] | Concentration of FLNA-Binding Compound as Agonist 0.1 μM | Concentration of FLNA-Binding Compound as Agonist 1 μM | Concentration of FLNA-Binding Compound as Agonist 1 μM + BFNA |
| --- | --- | --- | --- | --- | --- | --- | --- | --- | --- | --- | --- | --- |
| O=[N+]([O-])c1ccc(S(=O)(=O)N2CCC3(CC2)NCCCO3)cc1 [Compound C0045] | 88.3% | 109.1% | 634.3% | 149.2% | 105.3% | 238.8% | – | – | – | – | – | – |
| CC(=O)c1ccc(S(=O)(=O)N2CCOC23CCNCC3)cc1 [Compound C0046] | 197.4% | 211.5% | 356.4% | 286.2% | 156.8% | 492.9% | – | – | – | – | – | – |
| COc1ccc(S(=O)(=O)N2CCOC23CCN(S(=O)(=O)c2ccc(C(C)=O)cc2)CC3)cc1 [Compound C0047] | 98.1% | 88.5% | 182.0% | – | – | – | 142.2% | 206.1% | 80.1% | – | – | – |
| COc1ccc(S(=O)(=O)N2CCC3(CC2)OCCN3S(=O)(=O)c2ccc(C(C)=O)cc2)cc1 [Compound C0048] | 144.2% | 105.3% | 204.3% | – | – | – | – | – | – | 209.1% | 245.3% | 89.9% |
| COc1ccc(S(=O)(=O)N2CCC3(CC2)OCCN3S(=O)(=O)c2ccc(OC)c(OC)c2)cc1OC [Compound C0049] | 73.5% | 90.1% | 184.1% | – | – | – | 106.6% | 210.0% | 81.0% | – | – | – |
| CC(=O)N1CCSC12CCN(S(=O)(=O)c1ccc([N+](=O)[O-])cc1)CC2 [Compound C0050] | 76.1% | 54.8% | 134.1% | 110.3% | 59.0% | 127.6% | – | – | – | – | – | – |
| CC(O)c1ccc(S(=O)(=O)N2CCC3(CC2)OCCN3S(=O)(=O)c2ccc(C(C)O)cc2)cc1 (stereo not drawn) [Compound C0051] | 65.1% | 73.1% | 127.0% | – | – | – | 94.4% | 170.4% | 55.9% | – | – | – |
| CC(=O)c1ccc(C(=O)N2CCC3(CC2)OCCN3S(=O)(=O)c2ccc(C(C)=O)cc2)cc1 [Compound C0052] | 74.8% | 69.9% | 97.0% | – | – | – | 108.4% | 162.8% | 42.7% | – | – | – |
| CC(=O)c1ccc(C(=O)N2CCOC23CCN(S(=O)(=O)c2ccc(C(C)=O)cc2)CC3)cc1 [Compound C0053] | 71.7% | 67.5% | 211.6% | – | – | – | 104.0% | 157.2% | 93.1% | – | – | – |
| CC(=O)c1ccc(C(=O)N2CCC3(CC2)OCCN3C(=O)c2ccc(C(C)=O)cc2)cc1 [Compound C0054] | 47.0% | 54.5% | 98.9% | – | – | – | 68.2% | 127.0% | 43.5% | – | – | – |
| CC(=O)c1ccc(S(=O)(=O)N2CCC3(CC2)OCCN3S(C)(=O)=O)cc1 [Compound C0056] | 68.0% | 83.0% | 196.1% | 98.6% | 86.3% | 193.4% | – | – | – | – | – | – |
| CC(=O)c1ccc(S(=O)(=O)N2CCC3(CC2)NCCS3)cc1 [Compound C0060] | 114.8% | 93.9% | 327.0% | 166.5% | 143.9% | 218.9% | – | – | – | – | – | – |
| COc1cc(S(=O)(=O)N2CCC3(CC2)OCCN3S(=O)(=O)c2cc(OC)c(OC)c(OC)c2)cc(OC)c1OC [Compound C0062] | 81.9% | 134.7% | 149.9% | – | – | – | 127.8% | 310.5% | 59.8% | – | – | – |
| CC(=O)c1ccc(S(=O)(=O)N2CCC3(CC2)NC(=O)CN3S(=O)(=O)c2ccc(C(C)=O)cc2)cc1 [Compound C0064] | 124.2% | 159.1% | 110.4% | – | – | – | 213.8% | 349.6% | 38.1% | – | – | – |
| CC(=O)c1ccc(S(=O)(=O)N2CCC3(CC2)OC(CN(C)C)CN3S(=O)(=O)c2ccc(C(C)=O)cc2)cc1 (stereo not drawn) [Compound C0065] | 127.0% | 121.3% | 119.5% | – | – | – | 198.3% | 279.5% | 47.7% | – | – | – |
| O=S(=O)(c1ccc(Cl)cc1)N1CCC2(CC1)OCCN2S(=O)(=O)c1ccc(Cl)cc1 [Compound C0067] | 82.9% | 81.5% | 97.1% | – | – | – | 142.7% | 179.0% | 33.5% | – | – | – |
| O=S(=O)(c1ccc(Br)cc1C(F)(F)F)N1CCC2(CC1)OCCN2S(=O)(=O)c1ccc(Br)cc1C(F)(F)F [Compound C0068] | 53.4% | 83.8% | 307.8% | – | – | – | 107.2% | 263.1% | 165.9% | – | – | – |
| O=S(=O)(c1ccc(Br)cc1Br)N1CCC2(CC1)OCCN2S(=O)(=O)c1ccc(Br)cc1Br [Compound C0070] | 96.2% | 95.9% | 331.0% | – | – | – | 165.6% | 210.8% | 114.2% | – | – | – |
| O=S(=O)(c1ccc(C(F)(F)F)cc1Br)N1CCC2(CC1)OCCN2S(=O)(=O)c1ccc(C(F)(F)F)cc1Br [Compound C0071] | 160.5% | 161.7% | 513.3% | – | – | – | 276.3% | 355.3% | 177.1% | – | – | – |
| O=S(=O)(c1ccc(F)c(F)c1)N1CCC2(CC1)OCCN2S(=O)(=O)c1ccc(F)c(F)c1 [Compound C0072] | 100.3% | 117.9% | 194.5% | – | – | – | 172.7% | 259.1% | 67.1% | – | – | – |
| O=S(=O)(c1ccc(Br)c(C(F)(F)F)c1)N1CCC2(CC1)OCCN2S(=O)(=O)c1ccc(Br)c(C(F)(F)F)c1 [Compound C0077] | 109.5% | 104.9% | 621.4% | – | – | – | 192.7% | 265.4% | 136.7% | – | – | – |

From patent US10760052B2, “Method of inhibiting tau phosphorylation” (priority 2012, dated 2020)
